“Also recorded” adds a separate entry of the source.

One data set relates to lung metastases. In words: Example 9: osteosarcoma lung metastasis patient case, Gemcitabine dpi. Particulars: Gemcitabine 60 dpi BID. The format is in vivo. An excerpt: 2 months later, after standard chemoradiotherapy is completed, they are found to have three 1-cm lung metastases. […] undergoes second line treatment but the lesions progress, so they are started on Gemcitabine 60 dpi BID and has stabilization for 12 months thereafter. Here also, Verteporfin, Ribavirin, and/or Gemcitabine dpi could all be given together coupled with inhaled or intravenous Perflubron (emulsion).

The conditions of data set [1]: intravenous administration; cited from earlier work.
The next data set deals with Coronavirus. In words: Example 7: coronavirus infection patient case, Ribavirin dpi. The format is in vivo. Particulars: dpi 60 mg twice daily for 6 days, started after 2 days of fever. The procedure:
A nonsmoker having no previous lung disease develops symptoms of fever for 2 days and is then immediately started on Ribavirin dpi 2 p or 60 mg twice daily for 6 days. […] They avoid hospitalization and thereby avoids what may have been up to an increased 15-20% risk. Verteporfin and Gemcitabine dpi could be substituted for the Ribavirin.

In the next data set the test system is SARS-CoV. The settings on record: BALB/c mice; cited from earlier work.
The subject of the next data set is SARS-CoV-2. The settings on record: patients with severe COVID-19; intravenous Ribavirin versus supportive care only; cited from earlier work.
Another data set deals with nsp14 (Severe acute respiratory syndrome coronavirus, UniProt P0C6X7). The settings on record: cited from earlier work.
The conditions of data set [2]: in vivo; cited from earlier work.
The nature of data set [3]: Example 8: COPD and bilateral pneumonia/ARDS patient case, acetylcysteine dpi. The format is in vivo. The settings on record: dpi every 4 hours with a bronchodilator. As to the method:
A smoker with history of moderate chronic obstructive pulmonary disease (COPD) mixed type who has been diagnosed with acute respiratory distress syndrome (ARDS) secondary to bilateral pneumonia. The patient has a very productive cough but not expectorating significant secretions and is currently on high flow system 70% FIO2 (fraction of inspired oxygen). […] The patient is initiated on acetylcysteine dpi every 4 hours along with a bronchodilator (e.g., DUONEB albuterol and ipratropium).

Data set [4] can be described thus: Example 11: interstitial pulmonary fibrosis patient case, Verteporfin. Particulars: 15 mg 1 p BID. The format is in vivo. The text has this:
A nonsmoker farmer has a diagnosis of interstitial pulmonary fibrosis with progressive symptoms over the past 6 months and with reduction in FVC by Pulmonary Function testing. […] Here also, Verteporfin combined with inhaled Perflubron nintedanib may be given. Subsequent or concomitant PDT and/or SDT promotes the elimination of myofibroblasts/macrophages that are otherwise engaged in fibrosis.

For the next data set, the system named is Glioblastoma multiforme. In words: Example 12: glioblastoma multiforme patient case, Verteporfin nasal and oral inhalation. The format is in vivo. Particulars: 15 mg two puffs twice daily, six weeks. As to the method: The patient had standard of care treatment that included surgical resection, radiation and chemotherapy, but then had recurrence and is not candidate for surgical curative intent.
Immunohistochemistry at the 2nd operation is positive for PD-L1 and the patient is started on Verteporfin 15 mg two puffs twice daily both nasal and oral for the next six weeks. […] Here, drug delivery via intravenous route is avoided and possible direct brain delivery via nasal pathway is enabled. Here, systematic delivery of the drug by both nasal and oral inhalation is contemplated.

For data set [5] the following is noted: cited from earlier work.
The conditions of data set [6]: lipophilic solvents such as perfluorocarbons like perflubron; cited from earlier work.
Data set [7] deals with YAP1 (yes-associated protein 1) (Homo sapiens, UniProt P46937). The settings on record: cited from earlier work.
YAP1 (yes-associated protein 1), sequence (P46937 whole entry): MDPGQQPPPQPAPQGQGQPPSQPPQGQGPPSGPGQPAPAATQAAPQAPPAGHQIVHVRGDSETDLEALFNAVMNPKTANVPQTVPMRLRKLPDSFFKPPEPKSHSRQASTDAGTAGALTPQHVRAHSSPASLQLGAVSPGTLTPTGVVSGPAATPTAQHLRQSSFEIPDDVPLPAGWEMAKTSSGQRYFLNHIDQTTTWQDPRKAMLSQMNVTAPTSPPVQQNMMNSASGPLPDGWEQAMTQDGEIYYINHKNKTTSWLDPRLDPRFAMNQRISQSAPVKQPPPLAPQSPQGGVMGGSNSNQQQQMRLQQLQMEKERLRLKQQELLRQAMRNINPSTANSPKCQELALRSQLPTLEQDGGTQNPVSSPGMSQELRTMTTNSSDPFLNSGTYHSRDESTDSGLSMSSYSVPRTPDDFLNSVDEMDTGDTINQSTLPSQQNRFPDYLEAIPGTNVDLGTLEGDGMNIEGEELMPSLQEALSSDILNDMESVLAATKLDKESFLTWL

Turning to `Nc1ccn([C@@H]2O[C@H](CO)[C@@H](O)C2(F)F)c(=O)n1` [Gemcitabine], in the data set on lung metastases, the “duration of stabilization of lung metastases” value turned out to be 12 months. The “warning label adverse effects” value in data set [1] is listed as “can suppress bone marrow function”.

Regarding `NC(=O)c1ncn([C@@H]2O[C@H](CO)[C@@H](O)[C@H]2O)n1` [Ribavirin], the “clinical outcome (symptoms)” value with Coronavirus is reported as “symptomatic improvement”. In addition, in the data set on SARS-CoV, the “SARS-CoV infection in treated mice” value is “increased SARS-CoV1 infection”. Besides, in the data set with SARS-CoV-2, the “negative conversion time for SARS-CoV-2 test” value was “not associated with improved negative conversion time; also recorded: not associated with reduced negative conversion time”. Also, the “excision of Ribavirin by exonuclease activity of nsp14” value on nsp14 is on record as “can efficiently excise”. Further, the hemoglobin concentrations entry in data set [2] is given as “reduces hemoglobin concentrations”.

For the compound `CC(=O)N[C@@H](CS)C(=O)O` [acetylcysteine, N-acetyl cysteine], the “clinical outcome (need for mechanical ventilation)” value in data set [3] is on record as “avoid mechanical ventilation”.

Verteporfin: the “effect on lung decline” value in data set [4] was “stabilizing effect on lung decline”. The tumor mass entry with Glioblastoma multiforme was “overall reduction in tumor mass”. The “extent of exposure and maximal plasma concentration versus dose” value in data set [5] (dose between 6-20 mg/m^2) is on record as “proportional to the dose”. Also, the serum half-life in data set [5] (in vivo) was 5 to 6 h. For the same compound, the solubility result in [6] is “soluble in lipophilic solvents”. Also, the YAP1 inhibition result in data set [7] is “inhibits YAP1”.

These data come from patent US11446244B2 (priority 2020, dated 2022).
